Legend:
[1] = Interconversion between Enantiomer 1 and Enantiomer 2 in cell medium, chiral LC/MS-MS; type: physicochemical; conditions: 0.2 μM, 37° C.
Description: For the assessment of interconversion between Enantiomer 1 and Enantiomer 2 in cell medium, the following test was performed. […] At designated time point, aliquot (50 μL) was taken and processed by the addition of 150 μL of acetonitrile containing 0.1% formic acid and internal standard for LC/MS-MS analysis. Peak areas of both Enantiomer 1 and Enantiomer 2 were determined for each sample using a chiral specific analytical method.

[2] = biological target: T1, BRD9 (Homo sapiens, UniProt Q9H8M2); assay: BRD9 degradation in ASKA cells, western blot dose response; type: cell-based; design: degradation endogenous BRD9 protein in two synovial sarcoma cell lines; endogenous in cells; host or cells: ASKA synovial sarcoma cells; conditions: for DC50: read-out: Fitted DC50
T1 sequence (Q9H8M2 1-597): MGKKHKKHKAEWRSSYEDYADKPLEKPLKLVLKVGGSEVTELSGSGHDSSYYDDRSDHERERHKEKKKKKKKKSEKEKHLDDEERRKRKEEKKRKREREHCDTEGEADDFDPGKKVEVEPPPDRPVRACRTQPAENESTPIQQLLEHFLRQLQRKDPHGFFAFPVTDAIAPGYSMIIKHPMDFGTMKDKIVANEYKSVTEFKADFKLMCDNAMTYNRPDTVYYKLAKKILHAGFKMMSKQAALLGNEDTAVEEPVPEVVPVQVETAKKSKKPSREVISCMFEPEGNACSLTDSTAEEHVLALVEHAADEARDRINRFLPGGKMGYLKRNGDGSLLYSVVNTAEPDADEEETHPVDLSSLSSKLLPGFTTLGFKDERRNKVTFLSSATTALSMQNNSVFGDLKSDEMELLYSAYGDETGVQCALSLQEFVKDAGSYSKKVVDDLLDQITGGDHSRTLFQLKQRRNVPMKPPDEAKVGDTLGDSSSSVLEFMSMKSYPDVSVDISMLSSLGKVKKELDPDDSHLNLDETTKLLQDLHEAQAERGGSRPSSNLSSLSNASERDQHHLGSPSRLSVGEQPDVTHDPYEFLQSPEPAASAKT
Description: Method. […] Cells were then harvested, washed with cold PBS, and frozen in cell pellets at −80° C. Lysates were prepared by resuspending thawed pellets in 1×RIPA Lysis and Extraction buffer (Thermo Fisher, Cat #89900) with 1× Halt™ Protease and Phosphatase Inhibitor Cocktail, EDTA-free (Thermo Fisher, Cat #78441) and 1:1000 dilution Pierce™ Universal Nuclease for Cell Lysis 25ku (Thermo Fisher, Cat #88700). Lysates were incubated on ice for 10 minutes and then centrifuged in 4° C. at maximum speed (15,000 rpm) for 10 minutes. Samples were then analyzed for total protein using BCA protein quantification assay and diluted to 1 μg/μL with lysis buffer and 1× NuPAGE™ LDS Sample Buffer (4×) (Thermo Fisher, Cat #NP0007) and 1×DTT from 30× stock (Cell Signaling Technologies, Cat #14265S). Samples with 20-25 ug of total protein were loaded into 4-12% Bis-Tris Mini-Gel with 1×MES Running buffer and run at 150V for 45 minutes. Gels were transferred using Trans-Blot® Turbo™ Transfer System (semi-dry) at 25V for 10 minutes (High MW setting) on nitrocellulose blots. Blots were blocked in 5% milk in TBST for 1 hour and probed with BRD9 antibody (Bethyl Labs, Cat #A303-781A, 1:750 for SYO1, and Cell Signaling Technologies, Cat #71232S for ASKA) and beta-Actin antibody (Cell Signaling Technologies, Cat #3700, 1:2000) overnight at 4° C. The next day, blots were washed in TBST 3× and probed with 1:5000 IRDye® 680LT Goat anti-Rabbit IgG Secondary Antibody (LiCOR, Cat #926-68021) and 1:10000 IRDye® 800CW Goat anti-Mouse IgG Secondary Antibody (LiCOR, Cat #926-32210) in LiCOR Odyssey® Blocking Buffer (TBS) for 1 hour at room temperature. Blots were washed in TBST 3× and scanned at […] wavelength using LiCOR Odyssey® CLx Imaging System. Western blot signal was quantified using same analyses program included in the same machine. BRD9 signal was quantified by normalizing to beta-actin signal and all samples were normalized to DMSO, set as 100% signal.

[3] = biological target: T1, BRD9; assay: Pharmacodynamic BRD9 level in SYO-1 xenograft tumors, western blot (Example 14); type: in vivo; design: degradation endogenous BRD9 protein in two synovial sarcoma cell lines; endogenous in cells; host or cells: SYO1 (SYO-1) synovial sarcoma cells; conditions: for pharmacodynamic activity assessed by BRD9 protein level: BALB/c Nude mice, i.v. single dose, FIG. 23; for BRD9 protein degradation in tumor: single dose, tumors up to 72 hours
[4] = biological target: T1, BRD9; assay: BRD9 degradation in SYO-1 cells, western blot dose response; type: cell-based; design: degradation endogenous BRD9 protein in two synovial sarcoma cell lines; endogenous in cells; host or cells: SYO1 (SYO-1) synovial sarcoma cells; conditions: for DC50: read-out: Fitted DC50
Description: Method. Synoial sarcoma cells were plated in 6-well plate at 500-100 k cells/well and treated with serial concentrations of BRD9 degrader (10 nM top concentration, diluted 1:3) the next day for two time points at 37° C. Cells were then harvested, washed with cold PBS, and frozen in cell pellets at −80° C. Lysates were prepared by resuspending thawed pellets in 1×RIPA Lysis and Extraction buffer (Thermo Fisher, Cat #89900) with 1× Halt™ Protease and Phosphatase Inhibitor Cocktail, EDTA-free (Thermo Fisher, Cat #78441) and 1:1000 dilution Pierce™ Universal Nuclease for Cell Lysis 25ku (Thermo Fisher, Cat #88700). Lysates were incubated on ice for 10 minutes and then centrifuged in 4° C. at maximum speed (15,000 rpm) for 10 minutes. Samples were then analyzed for total protein using BCA protein quantification assay and diluted to 1 μg/μL with lysis buffer and 1× NuPAGE™ LDS Sample Buffer (4×) (Thermo Fisher, Cat #NP0007) and 1×DTT from 30× stock (Cell Signaling Technologies, Cat #14265S). Samples with 20-25 ug of total protein were loaded into 4-12% Bis-Tris Mini-Gel with 1×MES Running buffer and run at 150V for 45 minutes. Gels were transferred using Trans-Blot® Turbo™ Transfer System (semi-dry) at 25V for 10 minutes (High MW setting) on nitrocellulose blots. Blots were blocked in 5% milk in TBST for 1 hour and probed with BRD9 antibody (Bethyl Labs, Cat #A303-781A, 1:750 for SYO1, and Cell Signaling Technologies, Cat #71232S for ASKA) and beta-Actin antibody (Cell Signaling Technologies, Cat #3700, 1:2000) overnight at 4° C. The next day, blots were washed in TBST 3× and probed with 1:5000 IRDye® 680LT Goat anti-Rabbit IgG Secondary Antibody (LiCOR, Cat #926-68021) and 1:10000 IRDye® 800CW Goat anti-Mouse IgG Secondary Antibody (LiCOR, Cat #926-32210) in LiCOR Odyssey® Blocking Buffer (TBS) for 1 hour at room temperature. Blots were washed in TBST 3× and scanned at […] wavelength using LiCOR Odyssey® CLx Imaging System. Western blot signal was quantified using same analyses program included in the same machine. BRD9 signal was quantified by normalizing to beta-actin signal and all samples were normalized to DMSO, set as 100% signal.

[5] = test system: non-synovial control cancer cell lines (RD, HCT116, and Calu6); assay: Growth of non-synovial control cancer cell lines, crystal violet, day 14 (Example 3); type: cell-based; conditions: FIG. 8
Description: (§1) Procedure: Cells were seeded into 6-well or 12-well plates and were treated daily with a BRD9 degrader (Compound 1), a bromo-domain BRD9 binder (Compound 2), E3 ligase binder (lenalidomide), DMSO, or staurosporin (positive control for cell killing), at indicated concentrations. The number of cells was optimized for each cell line. Growth media was refreshed every 5 days. By day 14, medium was removed, cells were washed with PBS, and stained using 500 μL of 0.005% (w/v) crystal violet solution in 25% (v/v) methanol for at least 1 hour at room temperature. Subsequently plates were scanned on an Odyssey CLx Imaging system.

[6] = test system: synovial sarcoma cell lines (SYO1, HS-SY-II, and ASKA); assay: Growth of synovial sarcoma cell lines, crystal violet, day 14 (Example 3); type: cell-based; conditions: SYO1, HS-SY-II, ASKA; day 14; FIG. 7
Description: as §1

[7] = test system: synovial sarcoma cell lines (SYO1, Yamato, HS-SY-II, and ASKA); assay: Growth of synovial sarcoma cell lines (Example 2: confluency, crystal violet, colonies); type: cell-based; conditions: FIGS. 4, 5, 6
Description: (§2) Cells were treated with DMSO or the BRD9 degrader, Compound 1, at indicated concentrations, and proliferation was monitored from day 7 to day 14 by measuring confluency over time using an IncuCyte live cell analysis system (FIG. 4). Growth medium and compounds were refreshed every 3-4 days.
(§3) Cells were seeded into 12-well plates and treated with DMSO, 1 μM BRD9 inhibitor, Compound 2 (also known as BI-7273, see Martin et al, J Med Chem. 59(10):4462-4475 (2016); see structure of compound 2 below), or 1 μM BRD9 degrader, Compound 1.
(§4) The number of cells was optimized for each cell line. Growth medium and compounds were refreshed every 3-5 days. SYO1, Yamato, A549, 293T and HS-SY-II cells were fixed and stained at day 11. ASKA cells were fixed and stained at day 23. Staining was done by incubation with crystal violet solution (0.5 g Crystal Violet, 27 ml 37% Formaldehyde, 100 mL 10×PBS, 10 mL Methanol, 863 dH20 to 1 L) for 30 min followed by 3× washes with water and drying the plates for at least 24 h at room temperature. Subsequently plates were scanned on an Odyssey CLx Imaging system (FIG. 5).
(§5) Cells were seeded into 96-well ultra-low cluster plate (Costar, #7007) in 200 μL complete media and treated at day 2 with DMSO, Staurosporin, or BRD9 degrader, Compound 1, at indicated doses (FIG. 2C). Media and compounds were changed every 5 d and cell colonies were imaged at day 14.

[8] = test system: non-synovial control cancer cell lines (293T, A549, G401); assay: Growth of non-synovial control cancer cell lines (Example 2); type: cell-based; conditions: FIGS. 4, 5, 6
Description: as §2, §3, §4, §5

COc1cc(-c2cn(C)c(=O)c3cnc(N4CCC4)cc23)cc(OC)c1CN1CCC(CN2CCC3(CC2)CN(c2ccc4c(c2)C(=O)N(C2CCC(=O)NC2=O)C4)C3)CC1 (single isomer, unassigned; enantiomer 1) [Enantiomer 1]
Mean peak area ratio of Enantiomer 2 over Enantiomer 1 peak area ratio ([1]; Enantiomer 1 Dosing, 0 h): 0.0 | Mean peak area ratio of Enantiomer 2 over Enantiomer 1 peak area ratio ([1]; Enantiomer 1 Dosing, 0.5 h): 0.0 | % Enantiomer 2 ([1]; Enantiomer 1 Dosing, 2 h): 12% | Mean peak area ratio of Enantiomer 2 over Enantiomer 1 peak area ratio ([1]; Enantiomer 1 Dosing, 2 h): 0.13 | % Enantiomer 2 ([1]; Enantiomer 1 Dosing, 6 h): 30% | Mean peak area ratio of Enantiomer 2 over Enantiomer 1 peak area ratio ([1]; Enantiomer 1 Dosing, 6 h): 0.43 | DC50 ([2]; 0.5 h): > 10000 pM | BRD9 degradation activity ([2]; 30 minutes, up to 10 μM): no discernable activity | DC50 ([2]; 2 h): 380 pM | pharmacodynamic activity assessed by BRD9 protein level [3]: inactive | BRD9 protein degradation in tumor [3]: did not degrade BRD9 protein | DC50 ([4]; SYO-1, 1 h): 2800 pM | DC50 ([4]; SYO-1, 6 h): 66 pM

COc1cc(-c2cn(C)c(=O)c3cnc(N4CCC4)cc23)cc(OC)c1CN1CCC(CN2CCC3(CC2)CN(c2ccc4c(c2)C(=O)N(C2CCC(=O)NC2=O)C4)C3)CC1 (single isomer, unassigned; enantiomer 2) [Enantiomer 2]
% Enantiomer 2 ([1]; Enantiomer 2 Dosing, 0 h): 99% | Mean peak area ratio of Enantiomer 1 over Enantiomer 2 peak area ratio ([1]; Enantiomer 2 Dosing, 0 h): 0.01 | % Enantiomer 2 ([1]; Enantiomer 2 Dosing, 0.5 h): 95% | Mean peak area ratio of Enantiomer 1 over Enantiomer 2 peak area ratio ([1]; Enantiomer 2 Dosing, 0.5 h): 0.06 | % Enantiomer 2 ([1]; Enantiomer 2 Dosing, 2 h): 82% | Mean peak area ratio of Enantiomer 1 over Enantiomer 2 peak area ratio ([1]; Enantiomer 2 Dosing, 2 h): 0.22 | % Enantiomer 2 ([1]; Enantiomer 2 Dosing, 6 h): 63% | Mean peak area ratio of Enantiomer 1 over Enantiomer 2 peak area ratio ([1]; Enantiomer 2 Dosing, 6 h): 0.60 | DC50 ([2]; 0.5 h): 340 pM | difference in DC50 between Enantiomer 1 and Enantiomer 2 ([2]; 2 h): about 32 fold | DC50 ([2]; 2 h): 12 pM | potency compared with racemic compound D1 [3]: equipotent to racemic compound D1 | pharmacodynamic activity assessed by BRD9 protein level [3]: significant activity | BRD9 protein degradation in tumor [3]: degraded BRD9 up to 72 hours after a single dose | difference in DC50 between Enantiomer 1 and Enantiomer 2 ([4]; SYO1, 6 h): ca. 3 fold | BRD9 degradation compared with racemic compound D1 ([4]; SYO-1, 1 or 6 hours, FIGS. 16 and 17): slightly better than its racemic parent compound D1 | DC50 ([4]; SYO-1, 1 h): 92 pM | DC50 ([4]; SYO-1, 6 h): 23 pM

COc1cc(-c2cn(C)c(=O)c3cnccc23)cc(OC)c1CN(C)C [Compound 2, BI-7273]
growth of the cells [5]: did not result in inhibition of the growth | growth of the cells [6]: inhibition of the growth of the cells | growth of the cells [7]: inhibition of the growth of the cells | growth of the cells [8]: does not result in inhibition of the growth
